From patent EP0571685A1, “Aryloxyheteroarylpropylamines, their preparation and use” (NOVO NORDISK A/S, priority 1992, dated 1993)

system: voltage operated calcium channels (VOC); test: Inhibition of depolarization-induced 45Ca uptake into brain synaptosomes; type: biochemical; conditions: crude synaptosomal preparation (P₂) from male Wistar rat cerebral cortex; depolarization with 145 mM KCl; 15 s uptake; corrected for basal uptake; estimated from dose response curves
Source text: The pharmacological properties of the compounds of the invention can be illustrated by determining their capability to inhibit calcium uptake into brain synaptosomes.
Depolarization of neuronal membranes leads to an opening of socalled "voltage operated calcium channels" (VOC) in the membranes which allows a massive influx of calcium from the extracellular space. A crude synaptosomal preparation (socalled P₂ fraction) contains small vesicles surrounded by neuronal membrane and it is possible in such a preparation to study a depolarization-induced opening of VOC.
A male Wistar rat is decapitated and the cerebral cortex removed and homogenized in 10 ml. of ice-cold 0.32 M sucrose using a glass homogenizer with a teflon pestle. All subsequent steps for isolation of synaptosomes are done at 0-4°C. The homogenate is centrifuged at 1000 x g for 10 min and the resulting supernatant is re-centrifuged at 18000 x g for 20 min. This pellet (P₂) is resuspended in 0.32 M sucrose (5 ml per g of original tissue) with a teflon pestle.
The tubes are pre-incubated for 30 min on ice and then for 6 min at 37°C in a water bath.
The incubation is continued for 15 s.
The amount of radioactivity on the filter disc is determined by liquid scintillation spectrometry.
Test substances are dissolved in 10 ml of 48% ethanol at a concentration of 0.44 mg/ml. Dilution are made in 48% ethanol to give final concentrations of 0.1, 0.3, 1, 3 and 10 µg/ml. Experiments are performed in triplicate. Controls for depolarized and nondepolarized samples are included in the assay and test substances are only tested in depolarized samples.
The test value will be given as IC₅₀ (the concentration (µg/ml) of test substance which inhibit 50% of stimulated uptake of ⁴⁵Ca (uptake in depolarized samples corrected for basal uptake in nondepolarized samples )). The IC₅₀ value is estimated from dose response curves.

| SMILES | IC₅₀ (concentration of test substance which inhibit 50% of stimulated uptake of ⁴⁵Ca) [µg/mL] |
| --- | --- |
| CN(C)CCC(Oc1ccc(C(F)(F)F)cc1)c1ccsc1.Cl (stereo not shown) [Compound 27, N,N-dimethyl-3-(3-thienyl)-3-(4-trifluoromethylphenoxy)propanamine, hydrochloride] | 13 |
| FC(F)(F)c1ccc(OC(CCN2CCCCC2)c2ccc(Cl)s2)cc1.O=C(O)C(=O)O (stereo not shown) [Compound 15, 1-(3-(5-chloro-2-thienyl)-3-(4-trifluoromethylphenoxy)propyl)piperidine, oxalate] | 2.4 |
| FC(F)(F)c1cccc(OC(CCN2CCCCC2)c2ccc(Cl)s2)c1.O=C(O)C(=O)O (stereo not shown) [Compound 18, 1-(3-(5-chloro-2-thienyl)-3-(3-trifluoromethylphenoxy)propyl)piperidine, oxalate] | 7.3 |
| CCCCNCCC(Oc1ccc(C(F)(F)F)cc1)c1cc(C)sc1C.O=C(O)C(=O)O (stereo not shown) [Compound 4, N-butyl-3-(2,5-dimethyl-3-thienyl)-3-(4-trifluoromethylphenoxy)propanamine, oxalate] | 3.8 |
| N#Cc1cccc(OC(CCN2CCCCC2)c2ccc(Cl)s2)c1.O=C(O)C(=O)O (stereo not shown) [Compound 16, 1-(3-(5-chloro-2-thienyl)-3-(3-cyanophenoxy)propyl)piperidine, oxalate] | 12.0 |
| CN(C)CCC(Oc1ccc(Oc2ccccc2)cc1)c1ccc(Br)s1.O=C(O)C(=O)O (stereo not shown) [Compound 21, 3-(5-Bromo-2-thienyl)-N,N-dimethyl-3-(4-phenoxyphenoxy)propanamine, oxalate] | 5.9 |
| CSc1ccc(OC(CCN(C)C)c2ccc(Br)s2)cc1.O=C(O)C(=O)O (stereo not shown) [Compound 19, 3-(5-Bromo-2-thienyl)-N,N-dimethyl-3-(4-(methylthio)phenoxy)propanamine, oxalate] | 4.4 |
| CN(C)CCC(Oc1ccc(C(F)(F)F)cc1)c1cccs1.O=C(O)C(=O)O (stereo not shown) [Compound 23, N,N-dimethyl-3-(2-thienyl)-3-(4-trifluoromethylphenoxy)propanamine, oxalate] | 8.6 |
| FC(F)(F)c1ccc(OC(CCN2CCCCC2)c2cccs2)cc1.O=C(O)C(=O)O (stereo not shown) [Compound 24, 1-(3-(2-Thienyl)-3-(4-trifluoromethylphenoxy)propyl)piperidine, oxalate] | 5.8 |
| Cc1coc(C)c1C(CCN(C)C)Oc1ccc(C(F)(F)F)cc1.O=C(O)C(=O)O (stereo not shown) [Compound 11, N,N-Dimethyl-3-(2,4-dimethyl-3-furyl)-3-(4-trifluoromethylphenoxy)propaneamine, oxalate] | 10.3 |
| FC(F)(F)c1ccccc1OC(CCN1CCCCC1)c1ccc(Cl)s1.O=C(O)C(=O)O (stereo not shown) [Compound 17, 1-(3-(5-chloro-2-thienyl)-3-(2-trifluoromethylphenoxy)propyl)piperidine, oxalate] | 3.0 |
| CCCCNCCC(Oc1ccc(C#N)cc1)c1cc(C)sc1C.O=C(O)C(=O)O (stereo not shown) [Compound 3, N-butyl-3-(4-cyanophenoxy)-3-(2,5-dimethyl-3-thienyl)propanamine, oxalate] | 6.6 |
| CN(C)CCC(Oc1ccc(-c2ccccc2)cc1)c1ccc(Br)s1.O=C(O)C(=O)O (stereo not shown) [Compound 22, 3-(5-Bromo-2-thienyl)-N,N-dimethyl-3-(4-phenylphenoxy)propanamine, oxalate] | 4.4 |
